{"source": "patent US8217023B2", "about": "“19-nor-vitamin D analogs with 1,2- or 3,2-cyclopentene ring” (Wisconsin Alumni Research Foundation, priority 2009, dated 2012)", "key": {"[1]": {"tested_on": "24-hydroxylase (24Ohase) gene promoter in ROS 17/2.8 (bone) cells", "test": "In vitro transcription assay (24-hydroxylase promoter luciferase reporter)", "type": "cell-based", "conditions": "for EC50: 24-hydroxylase (CYP-24) promoter driving luciferase reporter, read-out: EC50, transcriptional activity in bone cells; for transcriptional activity in bone cells (in words): FIG. 3", "protocol": "Transcription activity was measured in ROS 17/2.8 (bone) cells that were stably transfected with a 24-hydroxylase (24Ohase) gene promoter upstream of a luciferase reporter gene (Arbour et al., 1998). Cells were given a range of doses. Sixteen hours after dosing the cells were harvested and luciferase activities were measured using a luminometer.\nRLU=relative luciferase units."}, "[2]": {"molecular_target": "T1, full-length recombinant rat vitamin D receptor (Rattus norvegicus, UniProt P13053)", "T1 construct": "Full-length recombinant rat receptor was expressed in E. coli; histidine tag (C); made in house; host or cells: E. coli BL21 (DE3) Codon Plus RTL", "T1 sequence (P13053 1-423)": "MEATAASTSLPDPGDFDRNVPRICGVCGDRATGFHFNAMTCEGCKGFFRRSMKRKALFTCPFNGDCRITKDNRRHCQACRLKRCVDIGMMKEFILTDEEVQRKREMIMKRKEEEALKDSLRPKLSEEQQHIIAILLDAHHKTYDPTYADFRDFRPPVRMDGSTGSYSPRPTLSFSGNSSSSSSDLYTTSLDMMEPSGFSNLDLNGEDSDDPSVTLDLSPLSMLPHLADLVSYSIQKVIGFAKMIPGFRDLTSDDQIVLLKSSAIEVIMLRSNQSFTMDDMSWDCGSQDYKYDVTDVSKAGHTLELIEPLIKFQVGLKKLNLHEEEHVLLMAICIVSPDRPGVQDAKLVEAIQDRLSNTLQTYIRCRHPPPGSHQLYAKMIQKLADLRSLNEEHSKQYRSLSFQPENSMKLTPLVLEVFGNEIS", "test": "Vitamin D receptor binding (competition with [3H]-1,25(OH)2D3)", "protocol": "Full-length recombinant rat receptor was expressed in E. coli BL21 (DE3) Codon Plus RTL cells and purified to homogeneity using two different column chromatography systems. The first system was a nickel affinity resin that utilizes the C-terminal histidine tag on this protein. The protein that was eluted from this resin was further purified using ion exchange chromatography (S-Sepharose Fast Flow). Aliquots of the purified protein were quick frozen in liquid nitrogen and stored at −80° C. until use. For use in binding assays, the protein was diluted in TEDK50 (50 mM Tris, 1.5 mM EDTA, pH7.4, 5 mM DTT, 150 mM KCl) with 0.1% Chaps detergent. The receptor protein and ligand concentration were optimized such that no more than 20% of the added radiolabeled ligand was bound to the receptor.\nRadiolabeled and unlabeled ligands were added to 100 mcl of the diluted protein at a final ethanol concentration of ≦10%, mixed and incubated overnight on ice to reach binding equilibrium. The following day, 100 mcl of hydroxylapatite slurry (50%) was added to each tube and mixed at 10-minute intervals for 30 minutes. The hydroxylapaptite was collected by centrifugation and then washed three times with Tris-EDTA buffer (50 mM Tris, 1.5 mM EDTA, pH 7.4) containing 0.5% Titron X-100. After the final wash, the pellets were transferred to scintillation vials containing 4 ml of Biosafe II scintillation cocktail, mixed and placed in a scintillation counter. Total binding was determined from the tubes containing only radiolabeled ligand."}, "[3]": {"tested_on": "Human promyelocytic leukemia (HL60) cells", "test": "HL-60 differentiation (nitro blue tetrazolium reduction)", "type": "cell-based", "conditions": "for EC50: HL-60 cells into monocytes, read-out: EC50, HL-60 cell differentiation", "protocol": "The study drugs were dissolved in ethanol and the concentrations determined using UV spectrophotometry. Serial dilutions were prepared so that a range of drug concentrations could be tested without changing the final concentration of ethanol (≦0.2%) present in the cell cultures.\nHuman promyelocytic leukemia (HL60) cells were grown in RPMI-1640 medium containing 10% fetal bovine serum. The cells were incubated at 37° C. in the presence of 5% CO2.\nHL60 cells were plated at 1.2×10^5 cells/ml. Eighteen hours after plating, cells in duplicate were treated with drug. Four days later, the cells were harvested and a nitro blue tetrazolium reduction assay was performed (Collins et al., 1979; J. Exp. Med. 149:969-974). The percentage of differentiated cells was determined by counting a total of 200 cells and recording the number that contained intracellular black-blue formazan deposits. Verification of differentiation to monocytic cells was determined by measuring phagocytic activity (data not shown)."}}, "note": "Entries after “also recorded” stand apart in the source; their conditions may differ. Like-named read-outs stand apart in the source and are kept apart here.", "data": [{"smiles": "C[C@H](CCCC(C)(C)O)C1CCC2/C(=C/C=C3\\C[C@@H]4CCC=C4[C@H](O)C3)CCC[C@@]21C", "note": "(stereo partly drawn) [DO-REVA, 1,2-cyclopentene-25-hydroxy-19-nor-vitamin D3]", "values": [{"measurement": "EC50", "setting": "[1]", "value": "> 1000", "unit": "nM"}, {"measurement": "transcriptional activity in bone cells (in words)", "setting": "[1]", "value": "weak transcriptional activity; also recorded: measurable transcription activity at the higher concentrations tested; also recorded: measurable transcriptional activity at the higher concentrations tested"}, {"measurement": "VDR binding activity (in words)", "setting": "[2]; FIG. 1", "value": "little to no binding affinity; also recorded: little to no receptor binding activity"}, {"measurement": "HL-60 cell differentiation activity (in words)", "setting": "[3]; FIG. 2", "value": "little to no ability to induce differentiation; also recorded: little to no cellular differentiation activity"}, {"measurement": "EC50", "setting": "[3]; Homo sapiens", "value": "> 1000", "unit": "nM"}]}, {"smiles": "C[C@H](CCCC(C)(C)O)C1CCC2/C(=C/C=C3/C[C@@H]4CCC=C4[C@H](O)C3)CCC[C@@]21C", "note": "(stereo partly drawn) [DO-REVB, 3,2-cyclopentene-1α-25-dihydroxy-19-nor-vitamin D3]", "values": [{"measurement": "EC50", "setting": "[1]", "value": 10, "unit": "nM"}, {"measurement": "transcriptional activity in bone cells (in words)", "setting": "[1]", "value": "weak transcriptional activity"}, {"measurement": "transcription of the 24-hydroxylase gene, times less potent than 1,25-(OH)2D3", "setting": "[1]; relative to 1,25-(OH)2D3", "value": "~20", "unit": "times"}, {"measurement": "gene transactivation, lower potency than the native hormone", "setting": "[1]; relative to the native hormone", "value": 2, "unit": "fold"}, {"measurement": "Ki", "setting": "[2]; full-length recombinant rat vitamin D receptor, read-out: Ki, competition with [3H]-1,25(OH)2D3 for binding to VDR", "value": 2, "unit": "nM"}, {"measurement": "VDR affinity, times less potent than 1,25-(OH)2D3", "setting": "[2]; relative to 1,25-(OH)2D3", "value": "~20", "unit": "times"}, {"measurement": "EC50", "setting": "[3]; Homo sapiens", "value": 30, "unit": "nM"}, {"measurement": "HL-60 cell differentiation, times less potent than the natural hormone", "setting": "[3]; relative to the natural hormone", "value": "~10", "unit": "times"}]}, {"smiles": "C=C1/C(=C\\C=C2/CCC[C@]3(C)[C@@H]([C@H](C)CCCC(C)(C)O)CC[C@@H]23)C[C@@H](O)C[C@@H]1O", "note": "[1α,25-dihydroxyvitamin D3, reference compound]", "values": [{"measurement": "EC50", "setting": "[1]", "value": 0.2, "unit": "nM"}, {"measurement": "EC50", "setting": "[3]", "value": 2, "unit": "nM"}]}]}
